According to patent US20080108641A1, “Compounds for treating inflammatory disorders, demyelinating disdorders and cancers” (priority 2006, published 2008):
Like-named read-outs stand apart in the source and are kept apart here.

Columns and labels:
[1] = test system: colorectal cancer cell lines (HT29 & HCT116); experiment: Microarray differential gene expression (CodeLink Human Whole Genome Bioarrays); format: cell-based
[2] = test system: Experimental Autoimmune Encephalomyelitis (EAE); settings: for mean clinical severity score: 20 mg/kg i.p. once a week
[3] = human dose of 540 mg/m^2 body surface area (as free base); cited from earlier work
[4] = 20 mg/kg i.p. weekly for 4, 6 and 8 weeks

## CCN(CC)CCNc1ccc2ncn3c4ccc(O)cc4c(=O)c1c23 [Symadex™]
[1]; gene MRPL39
  MEAN FOLD CHANGE OVER CONTROL: −2.20
[1]; gene MSLN
  MEAN FOLD CHANGE OVER CONTROL: −17.46
[1]; gene MT1A
  MEAN FOLD CHANGE OVER CONTROL: −16.21
[1]; gene MT2A
  MEAN FOLD CHANGE OVER CONTROL: −2.09
[1]; gene MTIF2
  MEAN FOLD CHANGE OVER CONTROL: −59.05
[1]; gene MXD3
  MEAN FOLD CHANGE OVER CONTROL: −2.66
[1]; gene MYBPC2
  MEAN FOLD CHANGE OVER CONTROL: −21.22
[1]; gene MYO15A
  MEAN FOLD CHANGE OVER CONTROL: −50.59
[1]; gene NCF1
  MEAN FOLD CHANGE OVER CONTROL: −33.67
[1]; gene NCF2
  MEAN FOLD CHANGE OVER CONTROL: −21.83
[1]; gene NDUFA6
  MEAN FOLD CHANGE OVER CONTROL: −2.51
[1]; gene NDUFB3
  MEAN FOLD CHANGE OVER CONTROL: −15.58
[1]; gene NDUFV3
  MEAN FOLD CHANGE OVER CONTROL: −10.52
[1]; gene NEB
  MEAN FOLD CHANGE OVER CONTROL: −6.89
[1]; gene NFATC1
  MEAN FOLD CHANGE OVER CONTROL: −16.69
[1]; gene NFKBIB
  MEAN FOLD CHANGE OVER CONTROL: −2.01
[1]; gene NMI
  MEAN FOLD CHANGE OVER CONTROL: −2.41
[1]; gene NMU
  MEAN FOLD CHANGE OVER CONTROL: −2.12
[1]; gene NR0B1
  MEAN FOLD CHANGE OVER CONTROL: −15.94
[1]; gene NR2E1
  MEAN FOLD CHANGE OVER CONTROL: −54.82
[1]; gene NR2E3
  MEAN FOLD CHANGE OVER CONTROL: −14.89
[1]; gene NRG1
  MEAN FOLD CHANGE OVER CONTROL: −17.54
[1]; gene NT5C3
  MEAN FOLD CHANGE OVER CONTROL: −2.08
[1]; gene NT5E
  MEAN FOLD CHANGE OVER CONTROL: −17.10
[1]; gene NTHL1
  MEAN FOLD CHANGE OVER CONTROL: −2.34
[1]; gene NUCKS
  MEAN FOLD CHANGE OVER CONTROL: −2.02
[1]; gene NUDT1
  MEAN FOLD CHANGE OVER CONTROL: −1.89
[1]; gene NUP107
  MEAN FOLD CHANGE OVER CONTROL: −2.68
[1]; gene OLR1
  MEAN FOLD CHANGE OVER CONTROL: −16.33
[1]; gene OXCT
  MEAN FOLD CHANGE OVER CONTROL: −2.68
[1]; gene PAFAH1B1
  MEAN FOLD CHANGE OVER CONTROL: −12.85
[1]; gene PAFAH1B2
  MEAN FOLD CHANGE OVER CONTROL: −2.25
[1]; gene PAICS
  MEAN FOLD CHANGE OVER CONTROL: −2.03
[1]; gene PCDH7
  MEAN FOLD CHANGE OVER CONTROL: −19.65
[1]; gene PCSK2
  MEAN FOLD CHANGE OVER CONTROL: −16.89
[1]; gene PDCD5
  MEAN FOLD CHANGE OVER CONTROL: −2.21
[1]; gene PDE11A
  MEAN FOLD CHANGE OVER CONTROL: −16.85
[1]; gene PECAM1
  MEAN FOLD CHANGE OVER CONTROL: −17.53
[1]; gene PFKL
  MEAN FOLD CHANGE OVER CONTROL: −10.55
[1]; gene PHAX
  MEAN FOLD CHANGE OVER CONTROL: −2.17
[1]; gene PHF5A
  MEAN FOLD CHANGE OVER CONTROL: −2.95
[1]; gene PIR51
  MEAN FOLD CHANGE OVER CONTROL: −3.73
[1]; gene PLK4
  MEAN FOLD CHANGE OVER CONTROL: −2.39
[1]; gene PLXNA3
  MEAN FOLD CHANGE OVER CONTROL: −8.04
[1]; gene SULT4A1, text statement
  fold down-regulation of SULT4A1: ~300 fold
[1]; gene SYNE1, text statement
  fold down-regulation of the SYNE1 spectrin repeats: 1500 fold
[2]; 4-week treatment cycle (n=14), starting mean 1.3, p 0.0001 vs control
  mean clinical severity score: 0.7
[2]; 6 week treatment (n=3), control 1.3, p 0.009
  mean clinical severity score: 0.3
[2]; [4]
  B-cell counts vs controls: no significant deviation from controls
  CD4 and CD8 T-cell populations: Neither are CD4 or CD8 T-cell populations modulated
  total T-cell counts vs vehicle control: no difference
[2]; 20 mg/kg i.p. weekly for 4 weeks, then 4 weeks vehicle, p 0.002 vs control
  disease course after drug withdrawal: remained in stable disease
[2]; 20 mg/kg i.p., 2 doses 72 hours apart, from 30 days post immunization (n=3), p 0.002 vs control
  clinical scores / disease progression: reversed the progression of disease and restored baseline clinical scores
[2]; 20 mg/kg i.p., 8 consecutive weekly doses (n=3), p 0.0006 vs control
  clinical scores at end of treatment course: converges on baseline
[2]; 40 mg/kg i.p. once a week for 4 weeks
  time to clinical recovery from the start of treatment: ≤ 2 weeks
[2]; 20 and 40 mg/kg i.p. once a week for 4 weeks from day 40, p 0.004 (20 mg/kg), 0.001 (40 mg/kg)
  clinical progress and pathological findings vs vehicle control: profound and substantial change
[2]; after prolonged treatment
  inflammatory cells in chronic demyelinated plaques: virtually no remaining inflammatory cells
[2]; chronic-progressive model, after disease progression
  endogenous remyelination: effective in permitting endogenous remyelination
[2]; treated groups vs vehicle controls, weekly dosing for 4 weeks
  scores for meningeal inflammation and perivascular infiltration: more severe in the treated groups than in vehicle controls
[3]
  tolerability of single dose: safe and well-tolerated
